Here are results for five molecules from patent US8916540B2, “Antibiotic compositions and related screening methods” (Academia Sinica, priority 2008, dated 2014).

Converted amounts (≈) assume the structure as drawn. Where two headings read alike, the source gives them in different places. A value given as a limit tells only on which side of the number the result lay.

One test has as its target T1, H. pylori PBP1a (Helicobacter pylori, UniProt O25319, /I22V/I24V/I79V/M17V/S417T/V16I, form not given).
T1 sequence (O25319 1-659 V16I/M17V/I22V/I24V/G44S/I79V/I101V/F125L/G242S/E323D/D336E/E406V/S417T/D508E): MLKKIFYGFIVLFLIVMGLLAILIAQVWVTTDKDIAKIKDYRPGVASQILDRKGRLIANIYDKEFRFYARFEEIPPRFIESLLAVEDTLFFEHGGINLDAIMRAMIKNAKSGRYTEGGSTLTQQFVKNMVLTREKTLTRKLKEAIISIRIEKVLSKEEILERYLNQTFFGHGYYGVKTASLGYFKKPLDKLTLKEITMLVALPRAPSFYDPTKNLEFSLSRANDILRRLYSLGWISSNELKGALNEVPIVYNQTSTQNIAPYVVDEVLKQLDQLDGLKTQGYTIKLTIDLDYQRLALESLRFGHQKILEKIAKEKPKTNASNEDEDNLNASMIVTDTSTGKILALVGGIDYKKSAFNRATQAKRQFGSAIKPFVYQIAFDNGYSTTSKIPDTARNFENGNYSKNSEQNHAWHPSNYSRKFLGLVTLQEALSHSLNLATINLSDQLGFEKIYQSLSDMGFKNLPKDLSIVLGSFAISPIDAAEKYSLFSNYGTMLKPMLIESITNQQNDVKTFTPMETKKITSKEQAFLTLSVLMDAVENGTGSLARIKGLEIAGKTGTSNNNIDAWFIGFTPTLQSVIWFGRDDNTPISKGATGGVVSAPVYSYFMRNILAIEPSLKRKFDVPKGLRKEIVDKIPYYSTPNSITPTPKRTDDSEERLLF
The class given is binding. The following applies: read-out: IC50 (fluorescence anisotropy assay, displacement of F-Moe); 100 nM F-Moe, 10 μg/ml H. pylori PBP1a, 10 mM Tris pH 8.0, 100 mM NaCl. Here is the method: Fluorescence anisotropy measurements were carried out in triplicates in the wells of 384-well plates using a laser fluorimetry equipped with a 488 nm laser (IsoCyte, Blueshift Biotech, Inc., Sunnyvale, Calif., USA). Various buffers, salts, pH values, and divalent cations (Ca^++, Mg^++, Co^++) were optimized for fluorescence anisotropy measurements. […] The scanning focus was above the plate bottom to avoid detection interferences. Data analysis was performed with the proprietary software, BlueImage (Blueshift Biotech Inc). Fluorescence anisotropy values (A) were calculated using the equation: A=(/∥−G*/⊥)/(/∥+2G*/⊥), where /∥ is the fluorescence intensity of emitted light parallel to excitation, /⊥ is the fluorescence intensity of emitted light perpendicular to excitation, and G is the […] that corrects for instrument bias. The G factor is experimentally determined for each run using the probe-only well as the basal an isotropy.
For the development of an assay for inhibitor screening, F-Moe was pre-incubated with H. pylori PBP1a and then competed with unlabeled Moe A at various concentrations.
For displacement assay, the initial condition contained 40 μl of 100 nM F-Moe, 10 μg/ml H. pylori PBP1a in 10 mM Tris, pH 8.0, 100 mM NaCl. Aliquots of compound stock solution were added and the anisotropy was monitored after 5 minutes of equilibration. The data from the displacement assay was used to calculate the inhibition constant (KI) and IC50 value of an inhibitor using the complete competitive binding model
[formula] The KI value was determined by plotting the total inhibitor concentration (C) versus the molar ratio of bound/free F-Moe and fitting the resulting curve to [Eq. 2], C=[(KI/KD*X)+1][RT−(LST*X)/(X+1)−KD*X [Eq. 2] […] The reported value is the average of four different runs.
For IC50 determination, the fraction of bound fluorescent probe is plotted versus the log value of the competitor concentration (C).
Background: In fluorescence polarisation assays a small probe gives low polarisation when free and higher when bound to something large.

For a further test, the system named is Enterococcus faecalis. The test is described as follows: Minimal inhibitory concentration (MIC) determination. The class given is cell-based. The following applies: Enterococcus faecalis. As to the method:
(§1) The minimal inhibitory concentration (MIC) of tested compounds was determined following the NCCLS standard. The experiments were conducted in 96-well microtiter plates using two-fold dilutions in Muller-Hilton broth with (Streptococcus pneumonia) or without blood (Bacillus subtilis, Enterococcus faecalis, Staphylococcus aureus). Exponentially growing cells at 5×10^5 cells/ml were incubated with test compounds at various concentrations.

Another test has as its system Bacillus subtilis. Described as above. The following applies: Bacillus subtilis. The class given is cell-based. As to the method:
as §1

The test system of another test is Staphylococcus aureus. The test is described as above. The conditions noted are these: Staphylococcus aureus. The class given is cell-based. As to the method: as §1
The next test has as its system Streptococcus pneumoniae. The description is as above. Type of test: cell-based. The following applies: Streptococcus pneumoniae. Here is the method: as §1
[1] abbreviates: E. faecalis ATCC29212, Muller-Hilton broth, 18 h to 24 h, 37° C., read-out: MIC E. faecalis (ATCC29212).
The mark [2] stands for this setting: B. subtilis ATCC23857, Muller-Hilton broth, 18 h to 24 h, 37° C., read-out: MIC B. subtilis (ATCC23857).
The mark [3] stands for this setting: S. aureus ATCC29213, Muller-Hilton broth, 18 h to 24 h, 37° C., read-out: MIC S. aureus (ATCC29213).
Where [4] appears, read: S. pneumoniae ATCC49619, Muller-Hilton broth with blood, 18 h to 24 h, 37° C., read-out: MIC S. pneumoniae (ATCC49619).

In general, IC50 refers to the point on the concentration scale where inhibition reaches its midpoint. Usually MIC stands for the smallest concentration in the dilution series that meets the test's criterion for growth inhibition.

Consider `O=C1/C(=N\Nc2nccs2)C(c2ccccc2)=NN1c1ccccc1` [Compound 7], for which the IC50 at H. pylori PBP1a is 3.7 µM. The MIC was 1 µM (≈ 0.347 µg/mL) in the test on Enterococcus faecalis (setting [1]), 0.25 µM (≈ 0.0869 µg/mL) in the test with Bacillus subtilis (setting [2]) and 4 µM (≈ 1.39 µg/mL) in the test on Staphylococcus aureus (setting [3]).
For `C/C(=C\c1ccc(C(=O)O)cc1)c1ccc2c(c1)C(C)(C)CCC2(C)C` [Compound 8, (E)-4-(2-(5,5,8,8,-tetramethyl-5,6,7,8-tetrahydronaphthalen-2-yl)prop-1-enyl)benzoic acid], the IC50 on H. pylori PBP1a was 9.3 µM. Besides, the MIC was above 4 µM with Enterococcus faecalis (setting [1]), above 4 µM with Streptococcus pneumoniae (setting [4]), 4 µM (≈ 1.39 µg/mL) in the test with Bacillus subtilis (setting [2]) and above 4 µM with Staphylococcus aureus (setting [3]).
For `O=C1OC(c2ccc(Br)cc2)=C/C1=C/c1ccc([N+](=O)[O-])o1` [Compound 6, (Z)-5-(4-bromophenyl)-3-((5-nitrofuran-2-yl)methylene)furan-2(3H)-one], on H. pylori PBP1a, the IC50 stood at 34 µM. Besides, the MIC came to 0.25 µM (≈ 0.0905 µg/mL) in the test on Enterococcus faecalis (setting [1]), 4 µM (≈ 1.45 µg/mL) with Streptococcus pneumoniae (setting [4]), 0.25 µM (≈ 0.0905 µg/mL) in the test with Bacillus subtilis (setting [2]) and 1 µM (≈ 0.362 µg/mL) in the test with Staphylococcus aureus (setting [3]).
For `C=C(CC=C(C)CCC=C(C)C)CCC(C)(C)C=CCCC(C)=CCOC(COP(=O)(O)OC1OC(C(N)=O)C(C)(O)C(OC(N)=O)C1OC1OC(COC2OC(CO)C(O)C(O)C2O)C(OC2OC(C)C(OC3OC(c4nc(C(=O)CCC(=O)O)nn4-c4ccc([N+](=O)[O-])c(C(=O)NCCNC(=O)CCCCCCC(=O)NCCNC(=O)c5cc(-n6nc(C(=O)CCC(=O)O)nc6C6OC(OC7C(C)OC(OC8C(COC9OC(CO)C(O)C(O)C9O)OC(OC9C(OP(=O)(O)OCC(OCC=C(C)CCC=CC(C)(C)CCC(=C)CC=C(C)CCC=C(C)C)C(=O)O)OC(C(N)=O)C(C)(O)C9OC(N)=O)C(NC(C)=O)C8O)C(NC(C)=O)C7O)C(O)C(O)C6O)ccc5[N+](=O)[O-])c4)C(O)C(O)C3O)C(O)C2NC(C)=O)C(O)C1NC(C)=O)C(=O)O` (stereo not drawn) [Compound 4], the IC50 on H. pylori PBP1a stood at 0.92 µM. Moreover, the MIC was 5 µM (≈ 18.9 µg/mL) in the test on Enterococcus faecalis (ATCC29212, read-out: MIC E. faecalis (ATCC29212)); 20 µM (≈ 75.5 µg/mL) in the test on Streptococcus pneumoniae (ATCC49619, read-out: MIC S. pneumoniae (ATCC49619)); 1.25 µM (≈ 4.72 µg/mL) in the test with Bacillus subtilis (ATCC23857, read-out: MIC B. subtilis (ATCC23857)); 0.625 µM (≈ 2.36 µg/mL) with Staphylococcus aureus (ATCC29213, read-out: MIC S. aureus (ATCC29213)).
For `C=C(CC=C(C)CCC=C(C)C)CCC(C)(C)C=CCCC(C)=CCOC(COP(=O)(O)OC1OC(C(N)=O)C(C)(O)C(OC(N)=O)C1OC1OC(COC2OC(CO)C(O)C(O)C2O)C(OC2OC(C)C(OC3OC(c4nc(C(=O)CCC(=O)O)nn4-c4ccc([N+](=O)[O-])c(C(=O)NCCN)c4)C(O)C(O)C3O)C(O)C2NC(C)=O)C(O)C1NC(C)=O)C(=O)O` (stereo not drawn) [Compound 2], at H. pylori PBP1a, the IC50 came out at 2.1 µM. Further, the MIC turned out to be 10 µM (≈ 18.2 µg/mL) in the test on Enterococcus faecalis (setting [1]), 20 µM (≈ 36.4 µg/mL) with Streptococcus pneumoniae (setting [4]), 2.5 µM (≈ 4.54 µg/mL) in the test on Bacillus subtilis (setting [2]) and 1.25 µM (≈ 2.27 µg/mL) in the test with Staphylococcus aureus (setting [3]).
